From US20050107289A1, “Anti-microbial peptides and compositions” (priority 2001, published 2005) come the findings set out here.

Data set [1] has as its system S. aureus (MRSA) ATCC 33591. It counts as cell-based, Staphylococcus aureus. Particulars: for MRSA (in vitro activity): Table 9; for S. aureus (MRSA) MIC: ATCC 33591. The procedure: (§1) The antimicrobial activity of the peptides was determined using a broth dilution assay essentially as descried in the guidelines of the National Committee for […] (NCCLS) [National Committee for Clinical Laboratory Standards. Methods for dilution antimicrobial susceptibility tests for bacteria that grow aerobically. Fourth edition. Approved Standard (1997). Document M7-A4. […] The microdilution method has the advantages of requiring less amount of peptide for each assay and the possibility of multiple simultaneous inoculations and was used in most studies. Several of the strains of bacteria tested are further described in Table 3.
(§2) Preparation of peptide solutions. Stock peptide solutions were prepared in 5% DMSO in aq. sucrose (9%). Determination of peptide concentrations was done by quantitative HPLC analysis using known concentrations of internal standards and/or by measuring UV absorption of tryptophane-containing peptide solutions in H2O (λ=280 εTrp: 5690). Serial 2-fold dilutions were made in the above DMSO/aq. sucrose (9%) mixture with concentrations ranging approximately 400-2 μg/ml and aliquots were dispensed in test tubes (100 μl) for the macrodilution test or in microtiter plates (20 μl) for the microdilution assays.
(§3) Inoculum preparation. Overnight cultures of different microorganisms grown in suitable media were diluted 4000 times to an approximate inoculum size of 2.5×10^5 cfu/ml.
(§4) Macrodilution method. Macrodilution methods were performed using procedures similar to those described in the National Committee for Clinical Laboratory Standards. Methods for dilution antimicrobial susceptibility tests for bacteria that grow aerobically. Fourth edition. Approved Standard (1997). Document M7-A4. (NCCLS,Villanova, Pa., 1997). Two ml aliquots of the above inoculum were dispensed to test tubes containing different peptide solutions.
(§5) Microdilution method. Microdilution methods were performed using procedures similar to those described in the National Committee for Clinical Laboratory Standards. Methods for dilution antimicrobial susceptibility tests for bacteria that grow aerobically. Fourth edition. Approved Standard (1997). Document M7-A4.

A further data set deals with murine red blood cells. In words: Red blood cell hemolysis. It counts as cell-based, mouse. As to the method:
Selectivity of cyclic peptides for bacterial over mammalian cells was evaluated by measuring red blood cell hemolytic activities as described in Tosteson, M. T. Holmes, S. J., Razin, M. and Tosteson, D. C. Melittin Lysis of Red Cells, J. Membrane Biol. 87, 35-44(1985). Heparinized murine blood was centrifuged at 1000×g for 10 minutes. The supernatant and the buffy coat were removed. Erythrocytes were washed three times with 0.9% saline solution and then resuspended to a concentration of 5% in saline containing 10% FBS (v/v). Red blood cells were then treated with serial dilutions of test peptides in a 96 well plate at 37° C. for 30 minutes. Control samples included a saline solution arid 1% Triton X-100 as 0 and 100% hemolysis, respectively. In some cases, mellitin was used as a further control. Mellitin is a linear peptide that is hemolytic against mammalian red blood cells in vitro at a concentration of about 10 μg/ml. Plates were centrifuged at 1000 g for 10 minutes. Aliquots of the supernatant were diluted 2 times with saline solution and the absorbance was measured at 560 nm.

In data set [2] the test system is vancomycin-resistant Enterococus faecalis (VRE)(ATCC 51575). It counts as cell-based, Enterococcus faecalis. Set-up: key to VRE (in vitro activity): peptide concentration in μg/ml (broth dilution assay). Particulars: Table 9. As to the method:
as §1, §2, §3, §4, §5

Where [3] appears, read: media b: cation adjusted Meuller Hinton broth (MHBII).
Where [4] appears, read: media c: Brain Heart Infusion (BHI).
Setting [5] is: media a: anti-microbial media-3 (AM-3).

Read-outs that look alike come from different tables or passages of the source. Non-standard residues stand in square brackets, D forms with d. Residues, ends and D or L forms follow the SMILES beside them. Nle = CCCC[C@H](N)C(=O)O

For `CC(C)C[C@H]1NC(=O)[C@H](C)NC(=O)[C@@H](CC(C)C)NC(=O)[C@H](Cc2ccccc2)NC(=O)[C@@H](CC(C)C)NC(=O)[C@H](CCCCN)NC(=O)[C@@H](Cc2c[nH]cn2)NC(=O)[C@H](CCCCN)NC1=O` [SEQ ID NO:47, [KHKLFLAL]] (cyclo(K[dH]K[dL]F[dL]A[dL])), the “MRSA (in vitro activity)” value in data set [1] (setting [3]) was 3. In addition, in the data set with murine red blood cells, the “RBC Hemolysis (HD50)” value was over 220. The “VRE (in vitro activity)” value in data set [2] (setting [4]) was 13.

For the compound `CC(C)C[C@H]1NC(=O)[C@H](Cc2c[nH]c3ccccc23)NC(=O)[C@@H](Cc2ccccc2)NC(=O)[C@H](CCCCN)NC(=O)[C@@H](Cc2ccccc2)NC(=O)[C@H](Cc2c[nH]c3ccccc23)NC(=O)[C@@H](CC(C)C)NC(=O)[C@H](Cc2c[nH]c3ccccc23)NC1=O` [SEQ ID NO:40, [KFWLWLWF]] (cyclo(K[dF]W[dL]W[dL]W[dF])), the “MRSA (in vitro activity)” value in data set [1] (setting [5]) was 33. The “RBC Hemolysis (HD50)” value in the data set with murine red blood cells is on record as over 44. Also, in data set [2] (media a: AM-3), the “VRE (in vitro activity)” value is over 44.

With `CC(C)C[C@@H]1NC(=O)[C@@H](Cc2ccccc2)NC(=O)[C@H](CCCCN)NC(=O)[C@@H](CCCCN)NC(=O)[C@H](CCCCN)NC(=O)[C@@H](Cc2ccccc2)NC(=O)[C@H](CC(C)C)NC(=O)[C@@H](Cc2ccccc2)NC1=O` [SEQ ID NO:51, [KKKFLFLF]] (cyclo(K[dK]K[dF]L[dF]L[dF])), the “MRSA (in vitro activity)” value in data set [1] (setting [3]) worked out at 18. The “RBC Hemolysis (HD50)” value with murine red blood cells was over 300. Also, in data set [2] (setting [4]), the “VRE (in vitro activity)” value came out at 75.

Take `CCCC[C@@H]1NC(=O)[C@@H](CC(C)C)NC(=O)[C@H](CCCCN)NC(=O)[C@@H](CO)NC(=O)[C@H](CCCCN)NC(=O)[C@@H](CC(C)C)NC(=O)[C@H](CCCC)NC(=O)[C@@H](CC(C)C)NC1=O` [SEQ ID NO:59, [KSKLNleLNleL]] (cyclo(K[dS]K[dL][Nle][dL][Nle][dL])): the “MRSA (in vitro activity)” value in data set [1] (setting [3]) amounted to 220. Further, in the data set on murine red blood cells, the “RBC Hemolysis (HD50)” value is listed as over 220. In addition, in data set [2] (setting [4]), the “VRE (in vitro activity)” value is over 200.

As for `CC(C)C[C@H]1NC(=O)[C@H](C)NC(=O)[C@@H](CC(C)C)NC(=O)[C@H](CCCCN)NC(=O)[C@@H]([C@H](C)O)NC(=O)[C@H](CCCCN)NC(=O)[C@@H](CC(C)C)NC(=O)[C@H](C)NC1=O` [SEQ ID NO:64, [KTKLALAL]] (cyclo(K[dT]K[dL]A[dL]A[dL])), the “MRSA (in vitro activity)” value in data set [1] (setting [3]) is listed as 80. Besides, the “RBC Hemolysis (HD50)” value with murine red blood cells is given as over 160. In addition, the “VRE (in vitro activity)” value in data set [2] (setting [4]) is over 160.

In the case of `CC(C)C[C@@H]1NC(=O)[C@@H](Cc2c[nH]c3ccccc23)NC(=O)[C@H](CCC(N)=O)NC(=O)[C@@H](Cc2c[nH]cn2)NC(=O)[C@H](CCCCN)NC(=O)[C@@H](Cc2c[nH]c3ccccc23)NC1=O` [SEQ ID NO:120, [KHQWLW]] (cyclo(K[dH]Q[dW]L[dW])), the “MRSA (in vitro activity)” value in data set [1] (setting [5]) amounted to 43. Moreover, in the data set with murine red blood cells, the “RBC Hemolysis (HD50)” value was found to be 115.0. Moreover, the “VRE (in vitro activity)” value in data set [2] (media a: AM-3) was 57.

Turning to `CC(C)C[C@H]1NC(=O)[C@H](CCCCN)NC(=O)[C@@H](CO)NC(=O)[C@H](CCCCN)NC(=O)[C@@H](CC(C)C)NC(=O)[C@H](CCCNC(=N)N)NC(=O)[C@@H](CC(C)C)NC(=O)[C@H](CCCNC(=N)N)NC1=O` [SEQ ID NO:105, [KSKLRLRL]] (cyclo(K[dL]R[dL]R[dL]K[dS])), in data set [1] (media b: cation adjusted Meuller Hinton broth (MHBII), listed as [KSKLRLRL] (105)), the “MRSA (in vitro activity)” value is listed as over 240. Moreover, the “RBC Hemolysis (HD50)” value with murine red blood cells is on record as over 240. The “VRE (in vitro activity)” value in data set [2] (media c: Brain Heart Infusion (BHI), listed as [KSKLRLRL] (105)) was over 240.

As to `CC(C)C[C@H]1NC(=O)[C@H](Cc2ccc(O)cc2)NC(=O)[C@@H](CCCCN)NC(=O)[C@H](CO)NC(=O)[C@@H](CO)NC(=O)[C@H](CCCCN)NC(=O)[C@@H](CC(C)C)NC(=O)[C@H](Cc2ccc(O)cc2)NC1=O` [SEQ ID NO:83, [KSSKYLYL]] (cyclo(K[dS]S[dK]Y[dL]Y[dL])), the “MRSA (in vitro activity)” value in data set [1] (setting [3]) is listed as 85. Further, the “RBC Hemolysis (HD50)” value with murine red blood cells is listed as over 340. The “VRE (in vitro activity)” value in data set [2] (setting [4]) is given as 170.

Consider `CC(C)C[C@@H]1NC(=O)[C@@H](Cc2c[nH]c3ccccc23)NC(=O)[C@H](Cc2ccccc2)NC(=O)[C@@H](CCCNC(=N)N)NC(=O)[C@H](CCC(N)=O)NC(=O)[C@@H](CCCNC(=N)N)NC(=O)[C@H](Cc2c[nH]c3ccccc23)NC(=O)[C@@H](Cc2c[nH]c3ccccc23)NC1=O` [SEQ ID NO:39, QRFWLWWR] (cyclo(Q[dR]F[dW]L[dW]W[dR])), for which the “S. aureus (MRSA) MIC” value in data set [1] lay within 2.5 to 3.8 µg/mL.

With `CC(C)C[C@H]1NC(=O)[C@H](CCCCN)NC(=O)[C@@H](CO)NC(=O)[C@H](CCCCN)NC(=O)[C@@H](CC(C)C)NC(=O)[C@H](Cc2ccccc2)NC(=O)[C@@H](CC(C)C)NC(=O)[C@H](Cc2ccccc2)NC1=O` [SEQ ID NO:55, [KSKLFLFL]] (cyclo(F[dL]F[dL]K[dS]K[dL])), the “MRSA (in vitro activity)” value in data set [1] (media b: cation adjusted Meuller Hinton broth (MHBII), listed as [KSKLFLFL] (55)) stood at 200. Moreover, the “VRE (in vitro activity)” value in data set [2] (media b: MHBII) is reported as 50.

For `C[C@H](O)[C@H]1NC(=O)[C@H](CCCNC(=N)N)NC(=O)[C@@H](CO)NC(=O)[C@H](CCC(N)=O)NC(=O)[C@@H](Cc2c[nH]cn2)NC(=O)[C@H](CCCCN)NC1=O` [SEQ ID NO:131, [KHQSRT]] (cyclo(K[dH]Q[dS]R[dT])), the “MRSA (in vitro activity)” value in data set [1] (setting [5]) is recorded as over 200. Besides, in data set [2] (media a: AM-3), the “VRE (in vitro activity)” value was over 200.

In the case of `CC(C)C[C@@H]1NC(=O)[C@@H](Cc2c[nH]c3ccccc23)NC(=O)[C@H](C(C)C)NC(=O)[C@@H](CCCNC(=N)N)NC(=O)[C@H](CCC(N)=O)NC(=O)[C@@H](CCCNC(=N)N)NC(=O)[C@H](Cc2c[nH]c3ccccc23)NC(=O)[C@@H](Cc2c[nH]c3ccccc23)NC1=O` [SEQ ID NO:38, QRVWLWWR] (cyclo(Q[dR]V[dW]L[dW]W[dR])), the “S. aureus (MRSA) MIC” value in data set [1] lay within 2.5 to 3.8 µg/mL.

For `CC(C)C[C@@H](NC(=O)[C@H](Cc1c[nH]c2ccccc12)NC(=O)[C@@H](CC(C)C)NC(=O)[C@H](Cc1c[nH]c2ccccc12)NC(=O)[C@@H](CCCCN)NC(=O)[C@H](CCCCN)NC(=O)[C@H](N)CCCCN)C(=O)N[C@@H](Cc1c[nH]c2ccccc12)C(=O)O` [SEQ ID NO:24, KKKWLWLW] (H-[dK]K[dK]W[dL]W[dL]W-OH; N-terminus and C-terminus assumed), the “S. aureus (MRSA) MIC” value in data set [1] came to 50 µg/mL.

For the compound `CC[C@H](C)[C@@H]1NC(=O)[C@@H](CC(C)C)NC(=O)[C@H](CCCCN)NC(=O)[C@@H](CO)NC(=O)[C@H](CCCCN)NC(=O)[C@@H](CC(C)C)NC(=O)[C@H]([C@@H](C)CC)NC(=O)[C@@H](CC(C)C)NC1=O` [SEQ ID NO:58, [KSKLILIL]] (cyclo(I[dL]I[dL]K[dS]K[dL])), the “MRSA (in vitro activity)” value in data set [1] (media b: cation adjusted Meuller Hinton broth (MHBII), listed as [KSKLILIL] (58)) is given as over 200. In data set [2] (media b: MHBII), the “VRE (in vitro activity)” value is 50.

With `CC(C)C[C@@H]1NC(=O)[C@@H](Cc2c[nH]c3ccccc23)NC(=O)[C@H](Cc2c[nH]c3ccccc23)NC(=O)[C@@H](CCCNC(=N)N)NC(=O)[C@H](CCC(N)=O)NC(=O)[C@@H](CCCNC(=N)N)NC(=O)[C@H](Cc2c[nH]c3ccccc23)NC(=O)[C@@H](Cc2c[nH]c3ccccc23)NC1=O` [SEQ ID NO:36, QRWWLWWR] (cyclo(Q[dR]W[dW]L[dW]W[dR])), the “S. aureus (MRSA) MIC” value in data set [1] was 2.5 to 3.8 µg/mL.

Turning to `CC(C)C[C@@H](NC(=O)[C@H](Cc1c[nH]c2ccccc12)NC(=O)[C@@H](CC(C)C)NC(=O)[C@H](Cc1c[nH]c2ccccc12)NC(=O)[C@@H](CCCCN)NC(=O)[C@H](CCCCN)NC(=O)[C@@H](CCCCN)NC(=O)[C@@H](N)Cc1c[nH]c2ccccc12)C(=O)N[C@@H](Cc1c[nH]c2ccccc12)C(=O)O` [SEQ ID NO:23, WKKKWLWLW] (H-W[dK]K[dK]W[dL]W[dL]W-OH; N-terminus and C-terminus assumed), the “S. aureus (MRSA) MIC” value in data set [1] was found to be 60 µg/mL.
